This test has as its target T1, human dihydrofolate reductase (hDHFR) (Homo sapiens, UniProt P00374).
T1 sequence (P00374 1-187): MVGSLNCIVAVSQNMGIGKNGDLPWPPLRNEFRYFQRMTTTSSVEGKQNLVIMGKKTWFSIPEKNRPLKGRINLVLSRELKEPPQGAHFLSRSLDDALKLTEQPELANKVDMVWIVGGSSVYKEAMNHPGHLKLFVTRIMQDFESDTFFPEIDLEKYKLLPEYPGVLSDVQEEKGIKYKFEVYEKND
Description: hDHFR inhibition assay. The test is classed as biochemical.

Experimental findings from PMC9753513 (ACS Omega, 2022) are described below.

As a reminder, the IC50 is the concentration that gives 50% inhibition. A low value points to greater potency.

For the compound `CN(C)c1ccc(C=NNC(=O)CSc2nc3sc4c(c3c(=O)n2-c2ccccc2)CCCCC4)cc1` [compound 23, N′-[4-(Dimethylamino)benzylidene]-2-[(4-oxo-3-phenyl-6,7,8,9-tetrahydro-3H-cyclohepta[4,5]thieno[2,3-d]pyrimidin-2-yl)thio]acetohydrazide], the IC50 came to 280 nM.
